# Earlier results in publication PMC9781020, “Anti-Mycobacterial N-(2-Arylethyl)quinolin-3-amines Inspired by Marine Sponge-Derived Alkaloid” (Molecules, 2022).
# Test system: drug-sensitive M. tuberculosis H37Rv and extensively drug-resistant M. tuberculosis strains
# Conditions: cited from earlier work
compound,measurement,value
"COC1=Cc2ccnc3c(NCCc4ccccc4)cnc(c23)C1=O [Compound 1, 3-(phenethylamino)demethyl(oxy)aaptamine, reference compound]",MIC,1.5 to 6.0 µM
